Test results reported in article PMC9218685, “Legume Plant Peptides as Sources of Novel Antimicrobial Molecules Against Human Pathogens” (Frontiers in Molecular Biosciences, 2022).
In brackets after ≈: the same amount, converted by molar mass. Ends that are not written are not given here. Peptide text beside a SMILES is read from it.

Assays:
Format in all cases: cell-based
[1] = system: Pseudomonas aeruginosa (ATCC 27853)
Excerpt: (§1) The following pathogenic bacterial strains were used: The Gram-positive Enterococcus faecalis (ATCC 29212), Staphylococcus aureus (HNCMO112011), Listeria monocytogenes (ATCC 19111) and the Gram-negative Pseudomonas aeruginosa (ATCC 27853), Escherichia coli (ATCC 8739), Salmonella enterica (ATCC 13076), Klebsiella pneumoniae (NCTC 13440), Acinetobacter baumannii (ATCC 17978) obtained from the ATCC (United States) and NCTC (National Collection of Type Cultures–England). For the antifungal experiment the Candida albicans W01 strain ([Ördögh et al., 2014]) was used. Antimicrobial activities of peptides against ∼10^7 log phase bacteria were tested in Potassium-Phosphate Buffer (PPB, pH 7.4) as described by [Jenei et al. (2020)] while anti-Candida assays were done according to [Szerencsés et al. (2021)]. The two-fold dilution series of peptides ranged from 25 μM to 0.125 μM, while that of the antibiotics ampicillin (Merck) and miconazole (Duchefa Biochemie) from […] to 0.1 μM. The lowest concentration of the antimicrobial agents, which completely eliminated viable bacteria or C. albicans were considered as the minimal bactericidal concentration (MBC) and minimal fungicidal concentration (MFC).
(§2) The minimal bactericidal concentrations (MBCs) were determined after 3 h of treatment of ∼10^7 log phase bacteria with 2-fold serial dilution of peptides from 25 µM to 0.8 µM. Only 25 of the 50 cationic M. truncatula peptides had activity at ≤25 µM (Supplementary Table S1). […] Three peptides were only active against two bacterial strains; NCR649 against L. monocytogenes and A. baumannii, NCR281 against L. monocytogenes and P. aeruginosa and NCR350 against A. baumannii and P. aeruginosa. […] None of the anionic NCR peptides affected the survival of the tested bacterial strains.

[2] = system: Escherichia coli (ATCC 8739); settings: for MBC Escherichia coli: ATCC 8739, 3 h
Excerpt: as §1, §2

[3] = system: E. coli, S. enteritidis, P. aeruginosa, L. monocytogenes, S. aureus, E. faecalis, K. pneumoniae and A. baumannii; test: Antimicrobial activity assay, spectrum over the eight tested pathogenic bacteria; settings: 3 h treatment of ~10^7 log phase bacteria, peptides 25 to 0.8 µM; active = MBC ≤25 µM
Excerpt: as §1
We investigated the antimicrobial activity of 78 NCR peptides from M. truncatula and 12 NCRs from other IRLC legumes as well as their shorter derivatives against E. coli, S. enteritidis, P. aeruginosa, L. monocytogenes, S. aureus, E. faecalis, K. pneumoniae and A. baumannii (Supplementary Table S1). In the selection of the M. truncatula peptides, we considered their symbiotic expression levels but also their physicochemical properties. The antimicrobial activity of NCRs has so far been attributed to cationic peptides, with the exception of one anionic peptide. To investigate whether other anionic NCRs are antimicrobial, in addition to the cationic peptides, neutral and anionic NCRs were also included covering a broad range of peptides with different net charges (NC: from 7.8 to −10.2) and isoelectric points (pI: from 10.69 to 2.95). 50 peptides had positive net charge and pI > 7.0, while 28 peptides had negative net charge and pI < 7.0 (Supplementary Table S1A). Of the other legumes, only cationic NCR peptides were studied (Supplementary Table S1B).
as §2

[4] = system: Listeria monocytogenes (ATCC 19111); settings: ATCC 19111, 3 h
Excerpt: as §1, §2

| Compound | MBC Escherichia coli [2] | Antibacterial spectrum over the eight tested bacterial strains [3] | also measured |
| --- | --- | --- | --- |
| CC(C)C[C@H](NC(=O)[C@H](CCCCN)NC(=O)[C@H](CC(C)C)NC(=O)[C@H](CS)NC(=O)[C@H](CCCCN)NC(=O)CNC(=O)[C@@H](N)Cc1ccccc1)C(=O)N[C@@H](CCCCN)C(N)=O [GoNCR308 (16-23)] (H-FGKCLKLK-NH2) | 25 µM (≈ 23.4 µg/mL) |  | MBC Pseudomonas aeruginosa ([1]; ATCC 27853, 3 h): 25 µM (≈ 23.4 µg/mL) |
| CC(C)[C@H](NC(=O)[C@H](CS)NC(=O)[C@@H](N)CCCCN)C(=O)N[C@@H](Cc1ccc(O)cc1)C(=O)N[C@H](C(=O)N1CCC[C@H]1C(=O)N[C@@H](CCCCN)C(=O)N[C@@H](CCCNC(=N)N)C(N)=O)[C@@H](C)O [GoNCR308 (23-30)] (H-KCVYTPKR-NH2) | 50 µM (≈ 49.7 µg/mL) |  |  |
| CC[C@H](C)[C@H](NC(=O)[C@H](CCCCN)NC(=O)[C@H](CC(=O)O)NC(=O)[C@@H]1CCCN1C(=O)[C@@H](N)Cc1ccccc1)C(=O)N[C@@H](Cc1ccccc1)C(=O)N[C@@H](Cc1ccccc1)C(=O)NCC(=O)N[C@@H](CC(=O)O)C(=O)N[C@@H](CS)C(=O)N[C@@H](CCC(N)=O)C(=O)N[C@H](C(=O)N[C@@H](CC(=O)O)C(=O)N[C@@H](CCCCN)C(=O)N[C@@H](CC(=O)O)C(=O)N[C@@H](CS)C(=O)N[C@@H](CCCCN)C(=O)N1CCC[C@H]1C(=O)N[C@@H](CCCCN)C(=O)N[C@@H](CCCNC(=N)N)C(=O)NCC(=O)N[C@H](C(=O)N[C@@H](CC(N)=O)C(=O)N[C@@H](Cc1ccccc1)C(=O)N[C@@H](CCCNC(=N)N)C(=O)N[C@@H](CS)C(=O)N[C@@H](CCCNC(=N)N)C(=O)N[C@@H](CCCCN)C(=O)NCC(=O)N[C@@H](CCCCN)C(=O)N[C@@H](CS)C(=O)N[C@@H](Cc1ccccc1)C(=O)N1CCC[C@H]1C(=O)N[C@H](C(=O)N[C@@H](CCCNC(=N)N)C(=O)O)C(C)C)C(C)C)[C@@H](C)O [MsNCR463] (H-FPDKIFFGDCQTDKDCKPKRGVNFRCRKGKCFPVR-OH; N-terminus assumed) |  | only effective against P. aeruginosa | Effective concentration (MBC) against P. aeruginosa ([1]; 3 h, ~10^7 log phase bacteria): 25 µM |
| CC[C@H](C)[C@H](NC(=O)[C@@H]1CCCN1C(=O)[C@@H]1CCCN1C(=O)[C@@H](NC(=O)[C@H](CS)NC(=O)[C@@H](NC(=O)CNC(=O)[C@H](CCCCN)NC(=O)[C@H](CCCNC(=N)N)NC(=O)[C@H](CS)NC(=O)[C@H](CCCNC(=N)N)NC(=O)[C@H](Cc1ccccc1)NC(=O)[C@H](CC(N)=O)NC(=O)[C@H](C)NC(=O)CNC(=O)[C@H](Cc1ccc(O)cc1)NC(=O)[C@H](CC(C)C)NC(=O)[C@H](CCCCN)NC(=O)[C@@H]1CCCN1C(=O)[C@H](CS)NC(=O)[C@H](CC(=O)O)NC(=O)[C@H](CCCCN)NC(=O)[C@H](CC(=O)O)NC(=O)[C@H](CCCNC(=N)N)NC(=O)[C@H](CCCCN)NC(=O)[C@H](CS)NC(=O)[C@H](CO)NC(=O)[C@H](CO)NC(=O)[C@@H](NC(=O)[C@H](Cc1ccccc1)NC(=O)[C@@H](NC(=O)CNC(=O)[C@H](CC(C)C)NC(=O)[C@@H](N)Cc1ccccc1)[C@@H](C)O)[C@@H](C)CC)[C@@H](C)O)C(C)C)C(=O)O [NCR035] (H-FLGTFISSCKRDKDCPKLYGANFRCRKGTCVPPI-OH; N-terminus assumed) | 12.5 µM (≈ 47.8 µg/mL) |  | Activity against E. coli ([2]; 3 h, ~10^7 log phase bacteria, peptides ≤25 µM): only effective |
| CSCC[C@H](NC(=O)[C@H](CCCNC(=N)N)NC(=O)[C@@H](NC(=O)[C@H](Cc1c[nH]c2ccccc12)NC(=O)[C@H](CCCNC(=N)N)NC(=O)[C@H](CS)NC(=O)[C@H](CCC(=O)O)NC(=O)CNC(=O)[C@H](CCCCN)NC(=O)[C@@H](NC(=O)[C@H](CS)NC(=O)[C@H](CCCCN)NC(=O)[C@H](Cc1ccccc1)NC(=O)[C@H](CCCNC(=N)N)NC(=O)[C@H](CCCCN)NC(=O)[C@@H](NC(=O)[C@H](CCCNC(=N)N)NC(=O)[C@@H](NC(=O)[C@H](CO)NC(=O)[C@@H]1CCCN1C(=O)[C@@H]1CCCN1C(=O)[C@H](CS)NC(=O)[C@H](CC(=O)O)NC(=O)[C@H](C)NC(=O)[C@H](CC(=O)O)NC(=O)[C@@H](NC(=O)[C@H](CCC(=O)O)NC(=O)[C@H](CS)NC(=O)[C@H](CC(N)=O)NC(=O)[C@@H](NC(=O)[C@@H](N)Cc1ccc(O)cc1)C(C)C)[C@@H](C)O)[C@@H](C)O)C(C)C)C(C)C)[C@@H](C)O)C(=O)N[C@@H](CO)C(=O)N[C@@H](Cc1ccc(O)cc1)C(=O)N[C@@H](C)C(=O)O [NCR086] (H-YVNCETDADCPPSTRVKRFKCVKGECRWTRMSYA-OH; N-terminus assumed) |  |  | MBC Listeria monocytogenes [4]: 25 µM (≈ 100 µg/mL) |
| CC[C@H](C)[C@H](NC(=O)[C@H](CCSC)NC(=O)[C@H](CCCNC(=N)N)NC(=O)[C@H](CCCNC(=N)N)NC(=O)CNC(=O)[C@@H]1CCCN1C(=O)[C@H](CC(C)C)NC(=O)[C@H](CS)NC(=O)[C@H](Cc1ccc(O)cc1)NC(=O)[C@H](CCCCN)NC(=O)[C@@H](NC(=O)[C@@H]1CCCN1C(=O)[C@H](CO)NC(=O)[C@H](CS)NC(=O)[C@H](CC(=O)O)NC(=O)[C@H](CO)NC(=O)[C@@H](NC(=O)[C@H](CCCCN)NC(=O)[C@@H](NC(=O)[C@H](CS)NC(=O)[C@H](CCC(=O)O)NC(=O)[C@H](CC(=O)O)NC(=O)[C@@H](N)CO)C(C)C)C(C)C)[C@@H](C)O)C(=O)N[C@@H](CS)C(=O)N[C@@H](CO)C(=O)N[C@@H](CCCCN)C(=O)NCC(=O)N[C@@H](CCCCN)C(=O)N[C@@H](CS)C(=O)N[C@@H](CCCCN)C(=O)N[C@@H](CS)C(=O)N[C@@H](CC(C)C)C(=O)N[C@@H](CCCNC(=N)N)C(=O)N[C@@H](CC(N)=O)C(=O)N[C@@H](CCSC)C(=O)N[C@@H](Cc1ccccc1)C(=O)N[C@H](C(=O)N1CCC[C@H]1C(=O)N[C@H](C(=O)N1CCC[C@H]1C(=O)O)[C@@H](C)CC)[C@@H](C)CC [NCR135] (H-SDECVKVSDCSPTKYCLPGRRMICSKGKCKCLRNMFIPIP-OH; N-terminus assumed) |  | against three strains |  |
| CC[C@H](C)[C@H](NC(=O)[C@@H]1CCCN1C(=O)[C@H](CO)NC(=O)[C@@H](N)CO)C(=O)N[C@@H](CCCNC(=N)N)C(=O)N[C@H](C(=O)N[C@H](C(=O)N[C@@H](CC(=O)O)C(=O)N[C@H](C(=O)N[C@@H](CO)C(=O)N[C@@H](CCCNC(=N)N)C(=O)N1CCC[C@H]1C(=O)N[C@@H](CS)C(=O)N[C@H](C(=O)N[C@H](C(=O)N[C@@H](CC(=O)O)C(=O)N[C@@H](CCCCN)C(=O)N[C@@H](CC(=O)O)C(=O)N[C@@H](CS)C(=O)N[C@@H](CO)C(=O)N[C@@H](CCCCN)C(=O)N[C@H](C(=O)N[C@@H](CCC(=O)O)C(=O)N[C@@H](Cc1ccc(O)cc1)C(=O)NCC(=O)N[C@@H](Cc1ccc(O)cc1)C(=O)N[C@@H](CCCCN)C(=O)N[C@@H](CC(C)C)C(=O)N[C@@H](CCCNC(=N)N)C(=O)N[C@@H](CS)C(=O)N[C@@H](CCCNC(=N)N)C(=O)N[C@@H](CCCCN)C(=O)NCC(=O)N[C@@H](CCCNC(=N)N)C(=O)N[C@@H](CS)C(=O)N[C@H](C(=O)N[C@@H](Cc1c[nH]cn1)C(=O)N[C@H](C(=O)N1CCC[C@H]1C(=O)N[C@@H](CCCNC(=N)N)C(=O)O)[C@@H](C)CC)C(C)C)C(C)C)[C@@H](C)O)[C@@H](C)O)C(C)C)[C@@H](C)O)C(C)C [NCR533] (H-SSPIRVTDVSRPCTTDKDCSKVEYGYKLRCRKGRCVHIPR-OH; N-terminus assumed) | 25 µM (≈ 115 µg/mL) |  |  |
| AYYECSNDSACQATTKCVLPRVPRCIKYKCLCGNSNGSGNRWSTRPNRIQKGSTESNYF-OH (cysteines drawn unpaired) [NCR384] |  | able to kill all tested bacteria except E. faecalis and K. pneumoniae |  |
| KCYQDSDCPKDMCSFLFKPKCIFTRYFPIYLGGICGCDRKTCP-OH (cysteines drawn unpaired) [NCR645] |  | kill all bacteria except E. faecalis |  |
| MKNGCKHTGHCPRKMCGAKTTKCRNNKCQCV [NCR192] |  | all active, with the exception of NCR192 |  |
